Assay results published in patent publication US10092575B2, “Substituted thiophene- and furan-fused azolopyrimidine-5-(6H)-one compounds” (DART NEUROSCIENCE (CAYMAN) LTD., priority 2012, dated 2018).

Molecular target: human PDE1b enzyme (Homo sapiens (Human), UniProt Q01064)
Experiment: PDE1b inhibitory assay (IMAP TR-FRET)
Details: not given

Compound	EC50 [µM]
O=c1n(Cc2ccc(-c3ccccc3)cc2)c2sc(Cc3ccccc3)cc2c2ncnn12 [Example 18, 6-([1,1′-Biphenyl]-4-ylmethyl)-8-benzylthieno[3,2-e][1,2,4]triazolo[1,5-c]pyrimidin-5(6H)-one]	1 to 10
Cc1cc2c(s1)n(Cc1ccccc1Cl)c(=O)n1ncnc21 [Example 13, 6-(2-Chlorobenzyl)-8-methylthieno[3,2-e][1,2,4]triazolo[1,5-c]pyrimidin-5(6H)-one]	1 to 10
COc1ccc(Cn2c(=O)n3ncnc3c3cc(CN(C)C4CCOCC4)sc32)cc1 [Example 204, 6-(4-Methoxybenzyl)-8-((methyl(tetrahydro-2H-pyran-4-yl)amino)methyl)thieno[3,2-e][1,2,4]triazolo[1,5-c]pyrimidin-5(6H)-one]	1 to 10
Cc1cc2c(s1)n(Cc1ccc(Cl)cc1)c(=O)n1ncnc21 [Example 15, 6-(4-Chlorobenzyl)-8-methylthieno[3,2-e][1,2,4]triazolo[1,5-c]pyrimidin-5(6H)-one]	0.1 to 1
O=c1n(Cc2ccc(-c3ccccc3)cc2)c2sc3c(c2c2ncnn12)CCCC3 [Example 86, 6-([1,1′-Biphenyl]-4-ylmethyl)-8,9,10,11-tetrahydrobenzo[4,5]thieno[3,2-e][1,2,4]triazolo[1,5-c]pyrimidin-5(6H)-one]	1 to 10
COc1ccc(Cn2c(=O)n3ncnc3c3cc(-c4c(C)noc4C)sc32)cc1 [Example 42, 8-(3,5-Dimethylisoxazol-4-yl)-6-(4-methoxybenzyl)thieno[3,2-e][1,2,4]triazolo[1,5-c]pyrimidin-5(6H)-one]	0.1 to 1

Same assay, conditions: negative log of half-maximal molar inhibitory concentration; 200 nM FAM-cAMP; reported as ranges

Compound	PDE1b (pEC50)
COc1ccc(Cn2c(=O)n3ncnc3c3c4c(sc32)NCCC4)cc1 [Example 220, 6-(4-Methoxybenzyl)-8,9,10,11-tetrahydropyrido[3′,2′:4,5]thieno[3,2-e][1,2,4]triazolo[1,5-c]pyrimidin-5(6H)-one]	>7
COc1ccc(Cn2c(=O)n3ncnc3c3cc(CN4C[C@@H](C)O[C@@H](C)C4)sc32)cc1 [Example 33, 8-(((2S,6R)-2,6-Dimethylmorpholino)methyl)-6-(4-methoxybenzyl)thieno[3,2-e][1,2,4]triazolo[1,5-c]pyrimidin-5(6H)-one]	>7
COc1ccc(Cn2c(=O)n3ncnc3c3cc(CN4CCOCC4)sc32)cc1 [Example 31, 6-(4-Methoxybenzyl)-8-(morpholinomethyl)thieno[3,2-e][1,2,4]triazolo[1,5-c]pyrimidin-5(6H)-one]	>7
COc1ccc(Cn2c(=O)n3ncnc3c3c(C)c(CN4CC5CC4CO5)sc32)cc1 (stereo not drawn) [Example 65, 8-(2-Oxa-5-azabicyclo[2.2.1]heptan-5-ylmethyl)-6-(4-methoxybenzyl)-9-methylthieno[3,2-e][1,2,4]triazolo[1,5-c]pyrimidin-5(6H)-one]	>7
COc1ccc(Cn2c(=O)n3ncnc3c3c4c(sc32)CN(CC(C)(C)C)CC4)cc1 [Example 115, 6-(4-Methoxybenzyl)-9-neopentyl-8,9,10,11-tetrahydropyrido[4′,3′:4,5]thieno[3,2-e][1,2,4]triazolo[1,5-c]pyrimidin-5(6H)-one]	>7
COc1ccc(Cn2c(=O)n3ncnc3c3c4c(sc32)CN(CC2(C)COC2)CC4)cc1 [Example 111, 6-(4-Methoxybenzyl)-9-((3-methyloxetan-3-yl)methyl)-8,9,10,11-tetrahydropyrido[4′,3′:4,5]thieno[3,2-e][1,2,4]triazolo[1,5-c]pyrimidin-5 (6H)-one]	>7
COc1ccc(Cn2c(=O)n3ncnc3c3c4c(sc32)CN(Cc2nccn2C)CCC4)cc1 [Example 144, 6-(4-Methoxybenzyl)-9-((1-methyl-1H-imidazol-2-yl)methyl)-6,8,9,10,11,12-hexahydro-5H-[1,2,4]triazolo[1″,5″:1′,6′]pyrimido[5′,4′:4,5]thieno[2,3-c]azepin-5-one]	>7
COc1ccc(Cn2c(=O)n3ncnc3c3cc(CN4CCOCC4)sc32)cc1F [Example 207, 6-(3-Fluoro-4-methoxybenzyl)-8-(morpholinomethyl)thieno[3,2-e][1,2,4]triazolo[1,5-c]pyrimidin-5(6H)-one]	>7
COc1ccc(Cn2c(=O)n3ncnc3c3c(CN(C)CC4CCOCC4)csc32)cc1 [Example 199, 6-(4-Methoxybenzyl)-9-((methyl((tetrahydro-2H-pyran-4-yl)methyl)amino)methyl)thieno[3,2-e][1,2,4]triazolo[1,5-c]pyrimidin-5(6H)-one]	>7
COc1ccc(Cn2c(=O)n3ncnc3c3c4c(sc32)CN(Cc2ccccn2)CCC4)cc1 [Example 146, 6-(4-Methoxybenzyl)-9-(pyridin-2-ylmethyl)-6,8,9,10,11,12-hexahydro-5H-[1,2,4]triazolo[1″,5″:1′,6′]pyrimido[5′,4′:4,5]thieno[2,3-c]azepin-5-one]	>7

Test system: NS1 cells
Experiment: Neurite outgrowth (NOG) assay
Assay type: cell-based
Details: alone, without forskolin
Procedure: Neuroscreen 1 (NS1) Cells (Cellomics Inc.) were cultured on collagen type I coated 75 cm2 plastic flasks (Biocoat, Becton Dickinson) in a humidified incubator at 37° C. in 5% CO2. Cells were cultured in RPMI complete cell culture medium (Cambrex) supplemented with 10% heat-inactivated horse serum (Invitrogen), 5% heat-inactivated fetal bovine serum (Cellgro), and 2 mM L-glutamine (Cambrex). For expansion, the cells were trypsinized and split at 80% confluence. Cell culture media was changed every 2 to 3 days.
NS1 cells were harvested and counted using a Coulter counter (Becton Dickinson Coulter Z1). Cells were seeded in 96-well collagen I coated plates at a density of 2000 cells per well in volume of […]. RPMI media was supplemented with 200 ng/ml nerve growth factor (NGF, Sigma). NS1 cells were incubated for 72 hours to allow differentiation to a neuronal phenotype. […]
Antibody-stained 96-well plates were stored at 4° C. in the dark until scanning. […] The neurite outgrowth assay is based on two channels to scanning: (1) Channel 1, which detects the Hoechst Dye and is used by the software to identify cells and for automated focusing; and (2) Channel 2, which detects the FITC fluorescence of the secondary antibody and is used by the software to calculate all data generated in reference to neurites. […]

Compound	neurite length and branching / neurite outgrowth
COc1ccc(C2CNC(=O)C2)cc1OC1CCCC1 (stereo not drawn) [Rolipram]	not affected

Same assay, conditions: in combination with forskolin

Compound	neurite length and branching / neurite outgrowth
COc1ccc(C2CNC(=O)C2)cc1OC1CCCC1 (stereo not drawn) [Rolipram]	enhanced in dose-dependent manner
